Source: the OligoGym collection
Several values for one entry are separate records, joined by “and”; a condition that tells them apart may be missing. Identical values can stand only once. After the bases stand the sugars from the 5' end (letter, count) and the backbone: PS all phosphorothioate, else s phosphorothioate and o phosphodiester by linkage. Methylation of C is not given here. e = 2'-O-(2-methoxyethyl) (MOE); d = 2'-deoxy (DNA)

Molecular target: DGAT2
Conditions: ASO

Row | Sequence | target mRNA inhibition (HepG2, 0.12 µM) | target mRNA inhibition (HepG2, 2.5 µM) | target mRNA inhibition (HepG2, 10 µM) | target mRNA inhibition (HepG2, 20 µM)
1 | CACTTCTGTGGCCTCTGTGC (sugars e5 d10 e5, PS) | 38% | – | – | –
2 | CAGCGATGAGCCAGCAA (sugars e3 d10 e4, PS) | – | 35% | 88% | –
3 | CAGGACCCCGGAGTAGGCGG (sugars e5 d10 e5, PS) | 75% | – | – | –
4 | CAGGACCTCAGGGCTGGCCC (sugars e5 d10 e5, PS) | – | 57% and 50% | 71% | –
5 | CAGGCCCCACTGCTTAGAGG (sugars e5 d10 e5, PS) | 48% | – | – | –
6 | CAGGGTGACTTTGCCCCATT (sugars e5 d10 e5, PS) | 43% | – | – | –
7 | CAGGTAAGGCCGTATGCCTG (sugars e5 d10 e5, PS) | 63% | – | – | –
8 | CAGGTACTCCCTCAACACAG (sugars e5 d10 e5, PS) | 52% | – | – | –
9 | CAGGTCCTCCGTGAGAGCGC (sugars e5 d10 e5, PS) | 29% | – | – | –
10 | CAGGTTGTGTGTCTTCACCA (sugars e2 d13 e5, PS) | 62% | – | – | –
11 | CAGGTTGTGTGTCTTCACCA (sugars e3 d14 e3, PS) | 68% | – | – | –
12 | CAGTGCCCCATCTCCCAGAC (sugars e5 d10 e5, PS) | 0% | – | – | –
13 | CAGTTTCGGACCCACTGTGA (sugars e3 d14 e3, PS) | 58% | – | – | –
14 | CATGGAGCTCAGAGACTCAG (sugars e3 d14 e3, PS) | 62% | – | – | –
15 | CATGTCATCAGCCACCCAAG (sugars e5 d10 e5, PS) | 16% | – | – | –
16 | CATTGCCACCCCCATCCTCA (sugars e5 d10 e5, PS) | 9% | – | – | –
17 | CCAAAGATATAGTTCCTGGT (sugars e5 d10 e5, PS) | 66% | – | – | –
18 | CCAATGCCTAGGTCACAGTT (sugars e5 d10 e5, PS) | – | 91% | 83% | –
19 | CCACCTTCCAGGGAATAAAA (sugars e5 d10 e5, PS) | 22% | – | – | –
20 | CCAGGCCAAGGCTGAGTCTG (sugars e5 d10 e5, PS) | 27% | – | – | –
21 | CCAGGGCCTCCATGTACATG (sugars e3 d14 e3, PS) | 86% | – | 59% | 41%
22 | CCAGGTAAGGCCGTATGCCT (sugars e2 d13 e5, PS) | 64% | – | – | –

Row | Sequence | target mRNA inhibition (HepG2, 0.12 µM) | target mRNA inhibition (HepG2, 2.5 µM) | target mRNA inhibition (HepG2, 10 µM) | target mRNA inhibition (HepG2, 20 µM)
23 | CCAGGTAAGGCCGTATGCCT (sugars e5 d10 e5, PS) | 78% and 76% | 18% | 20% | 43%
24 | CCAGTTTCGGACCCACTGTG (sugars e2 d13 e5, PS) | 80% | 12% | 25% and 50% | 50%
25 | CCCAACCTTTAAGGCCTATC (sugars e5 d10 e5, PS) | – | 46% | 85% | –
26 | CCCACAGAAGAGCAAAGGCT (sugars e5 d10 e5, PS) | – | 76% and 74% | 94% and 92% | –
27 | CCCAGGAGCCCTCCTCGAAG (sugars e5 d10 e5, PS) | 54% | – | – | –
28 | CCCCCACTGTCAGTCTCTCC (sugars e5 d10 e5, PS) | – | 37% | 76% | –
29 | CCCCTCGCGCGACAGCGCAG (sugars e5 d10 e5, PS) | 25% | – | – | –
30 | CCCTGGGACTCAGTGTCCTC (sugars e5 d10 e5, PS) | – | 90% | 83% | –
31 | CCCTTGCGGTTCCGCAGGGT (sugars e5 d10 e5, PS) | 36% | – | – | –
32 | CCGCGCAGGACCCCGGAGTA (sugars e3 d14 e3, PS) | 71% | – | – | –
33 | CCGCGCAGGACCCCGGAGTA (sugars e5 d10 e5, PS) | 75% | – | – | –
34 | CCTACAGCAGAGGGAAGATG (sugars e5 d10 e5, PS) | 13% | – | – | –
35 | CCTGCAGAAAAAGCAACCAA (sugars e5 d10 e5, PS) | – | 30% | 75% | –
36 | CCTGCTTGTACACTTCATTC (sugars e5 d10 e5, PS) | – | 51% | 87% | –
37 | CCTGGACAAGTCCTGCCCAT (sugars e5 d10 e5, PS) | 73% | – | – | –
38 | CCTGTAGCTGCTTTTCCACC (sugars e5 d10 e5, PS) | 29% | – | – | –
39 | CGACAGCGCAGGTCCTCCGT (sugars e5 d10 e5, PS) | 48% | – | – | –
40 | CGATTCACTGAGGACCTCAG (sugars e5 d10 e5, PS) | – | 79% | 61% | –
41 | CGCAGGACCCCGGAGTAGGC (sugars e3 d14 e3, PS) | 65% | – | – | –
42 | CGCAGGGCCAGTTTCACAAA (sugars e5 d10 e5, PS) | 31% | – | – | –
43 | CGCGATTCACTGAGGAC (sugars e3 d10 e4, PS) | – | 73% and 74% | – | –
44 | CGGACTGAATGTCACCTCTT (sugars e5 d10 e5, PS) | – | 74% and 73% | 90% and 76% | –

Row | Sequence | target mRNA inhibition (HepG2, 0.12 µM) | target mRNA inhibition (HepG2, 2.5 µM) | target mRNA inhibition (HepG2, 10 µM) | target mRNA inhibition (HepG2, 20 µM)
45 | CGGAGAGGATGCTGGATCCA (sugars e5 d10 e5, PS) | 47% | – | – | –
46 | CGTGAGCTGGTGTTCTACAA (sugars e5 d10 e5, PS) | – | 59% | 74% | –
47 | CTCAGTTCTTCCAACCAGTG (sugars e5 d10 e5, PS) | – | 83% and 68% | 93% and 91% | –
48 | CTCCCATTCTTTGAAAGCAA (sugars e5 d10 e5, PS) | – | 30% | 54% | –
49 | CTCCTCCCCTTGGCAGAGAA (sugars e5 d10 e5, PS) | 43% | – | – | –
50 | CTCTCATTTCTTATCTTCAA (sugars e5 d10 e5, PS) | – | 70% | 93% | –
51 | CTCTCCAACTCCTCCCCTTG (sugars e5 d10 e5, PS) | 25% | – | – | –
52 | CTGACATGGTAAGTCCTGAT (sugars e5 d10 e5, PS) | – | 76% and 52% | 93% and 89% | –
53 | CTGGACAAGTCCTGCCCATC (sugars e3 d14 e3, PS) | 67% | – | – | –
54 | CTGGAGGCCAGTCCAGGCTC (sugars e5 d10 e5, PS) | 23% | – | – | –
55 | CTGGCTCAGTTCACCTCCAG (sugars e5 d10 e5, PS) | 90% | – | – | –
56 | CTGTGACCTCCTGCCACCTT (sugars e5 d10 e5, PS) | 25% | – | – | –
57 | CTTACTGTTCAGCAGTCTGC (sugars e5 d10 e5, PS) | – | 57% | 90% | –
58 | CTTCACCAGGGCCTCCATGT (sugars e5 d10 e5, PS) | 46% | 10% | 66% | 87%
59 | CTTGCCAGGCATGGAGCTCA (sugars e5 d10 e5, PS) | 51% | – | – | –
60 | CTTGGAGTAGGGCACCAGCC (sugars e5 d10 e5, PS) | 35% | – | – | –
61 | CTTTGAGCATCCCCAATCCC (sugars e5 d10 e5, PS) | – | 14% | 75% | –
62 | GAAACAGGCAGTAGGAAATC (sugars e5 d10 e5, PS) | 23% | – | – | –
63 | GACCCACTGGAGCACTGAGA (sugars e2 d13 e5, PS) | 70% | – | – | –
64 | GACTGCATTCTTGCCAGGCA (sugars e5 d10 e5, PS) | 60% | – | – | –
65 | GAGCACAGCGATGAGCCAGC (sugars e5 d10 e5, PS) | – | 43% | 91% | –
66 | GAGCAGGTTCATCTGCCTTG (sugars e5 d10 e5, PS) | – | 81% and 61% | 92% and 83% | –
